Data reported in article PMC13352219, “Analysis of glutamine synthetase target‐site mutations and their role in endowing glufosinate‐ammonium resistance” (Pest Management Science, 2026).

Columns and labels:
[1] = tested on: Amaranthus palmeri cytosolic GS1.1 V193T; assay: GS enzyme inhibition assay, GS1.1 V193T; type: biochemical
Protocol: (§1) GS activity was determined spectrophotometrically following the Sigma‐Aldrich enzymatic assay protocol. The reaction couples the ATP‐dependent conversion of L‐glutamate and ammonium to L‐glutamine with pyruvate kinase (PK) and L‐lactate dehydrogenase (LDH), such that oxidation of β‐NADH to β‐NAD^+ can be monitored at 340 nm. Recombinant GS from A. palmeri was expressed in E. coli, purified by affinity chromatography, and quantified by the Bradford method using bovine serum albumin as standard. […] Reaction mixtures were equilibrated to 37°C and initiated by the addition of enzyme, and the decrease in absorbance at 340 nm was recorded for 5–10 min; only the linear portion of the curve was used for activity calculations. […] Activity was calculated using an extinction coefficient for NADH of 6.22 mM^−1 cm^−1 and expressed as units per mg protein, where one unit corresponds to the formation of 1 μmol of L‐glutamine in […] at pH 7.1 and 37 °C. […] Percent inhibition was calculated relative to untreated (positive) and no‐enzyme (negative) controls. […] Resistance factors were calculated by dividing the IC₅₀ of each mutant variant by that of wild‐type GS.

[2] = tested on: Amaranthus palmeri cytosolic GS1.1 G245S; assay: GS enzyme inhibition assay, GS1.1 G245S; type: biochemical
Protocol: as §1

[3] = tested on: Amaranthus palmeri cytosolic GS1.1 G162N; assay: GS enzyme inhibition assay, GS1.1 G162N; type: biochemical
Protocol: as §1

[4] = tested on: Amaranthus palmeri cytosolic GS1.1 E297A; assay: GS enzyme inhibition assay, GS1.1 E297A; type: biochemical
Protocol: as §1

[5] = tested on: Amaranthus palmeri cytosolic GS1.1 R38E; assay: GS enzyme inhibition assay, GS1.1 R38E; type: biochemical
Protocol: as §1

[6] = tested on: GFA‐resistant E. indica population; design: method as in ref 10 = [10]; 10 Jalaludin A , Ngim J , Bakar BH and Alias Z , Preliminary findings of potentially resistant goosegrass ( Eleusine indica ) to glufosinate ammonium in Malaysia . Weed Biol Manage 10 : 256 – 260 ( 20); details: cited from earlier work
[7] = molecular target: Eleusine indica GS1.1 S59G; assay: GS enzyme inhibition assay, ELEIN GS1.1 S59G; type: biochemical
[8] = tested on: Amaranthus palmeri cytosolic GS1.1 E192Q; assay: GS enzyme inhibition assay, GS1.1 E192Q; type: biochemical
Protocol: as §1

[9] = tested on: Amaranthus palmeri cytosolic GS1.1 R311Q; assay: GS enzyme inhibition assay, GS1.1 R311Q; type: biochemical
Protocol: as §1

[10] = tested on: Amaranthus palmeri cytosolic GS1.1 H249N; assay: GS enzyme inhibition assay, GS1.1 H249N; type: biochemical
Protocol: as §1

[11] = tested on: Amaranthus palmeri cytosolic GS1.1 E131K; assay: GS enzyme inhibition assay, GS1.1 E131K; type: biochemical
Protocol: as §1

[12] = tested on: Amaranthus palmeri cytosolic GS1.1 A309Y; assay: GS enzyme inhibition assay, GS1.1 A309Y; type: biochemical
Protocol: as §1

[13] = tested on: Amaranthus palmeri cytosolic GS1.1 G245C; assay: GS enzyme inhibition assay, GS1.1 G245C; type: biochemical
Protocol: as §1

[14] = tested on: Amaranthus palmeri cytosolic GS1.1 H249R; assay: GS enzyme inhibition assay, GS1.1 H249R; type: biochemical
Protocol: as §1

[15] = tested on: Amaranthus palmeri cytosolic GS1.1 E192D; assay: GS enzyme inhibition assay, GS1.1 E192D; type: biochemical
Protocol: as §1

[16] = tested on: Amaranthus palmeri cytosolic GS1.1 R34A; assay: GS enzyme inhibition assay, GS1.1 R34A; type: biochemical
Protocol: as §1

[17] = tested on: Amaranthus palmeri cytosolic GS1.1 R291S; assay: GS enzyme inhibition assay, GS1.1 R291S; type: biochemical
Protocol: as §1

[18] = read-out: Glufosinate‐ammonium IC50

In the case of `CP(=O)(O)CCC(N)C(=O)O` (centres unmarked) [Glufosinate‐ammonium], the “Resistance index (RI)” value ([1]; IC50 variant / IC50 WT) is reported as 3.2, the IC50 [1, 18] is reported as 69 µM and the “Glufosinate‐ammonium % Inhibition at saturation 10 000 μM” value (from here on “Glufosinate‐ammonium % Inhibition”) ([2]; 10 000 μM) is reported as 9%. The IC50 [2, 18] was greater than 10000 µM, the “Resistance index (RI)” value ([3]; IC50 variant / IC50 WT) was 22.6 and the IC50 [3, 18] was 489 µM. The “Resistance index (RI)” value ([4]; IC50 variant / IC50 WT) was 0.3, the IC50 [4, 18] was 6.9 µM and the “Resistance index (RI)” value ([5]; IC50 variant / IC50 WT) was 0.2. For the same compound, the IC50 [5, 18] was 4.8 µM, the resistance [6] was “up to 20 fold” and the IC50 [7] was 19 µM. For the same compound, the “Glufosinate‐ammonium % Inhibition” value ([8]; 10 000 μM) was 0%, the IC50 [8, 18] was greater than 10000 µM and the “Glufosinate‐ammonium % Inhibition” value ([9]; 10 000 μM) was 1.9%. The IC50 [9, 18] was greater than 10000 µM, the “Glufosinate‐ammonium % Inhibition” value ([10]; 10 000 μM) was 17% and the IC50 [10, 18] was greater than 10000 µM. The “Glufosinate‐ammonium % Inhibition” value ([11]; 10 000 μM) was 0%, the IC50 [11, 18] was greater than 10000 µM and the “Resistance index (RI)” value ([12]; IC50 variant / IC50 WT) was 799.7. For the same compound, the IC50 ([12]; read-out: Glufosinate‐ammonium IC50 (converted)) was 17400 µM, the “Glufosinate‐ammonium % Inhibition” value ([13]; 10 000 μM) was 0% and the IC50 [13, 18] was greater than 10000 µM. For the same compound, the “Glufosinate‐ammonium % Inhibition” value ([14]; 10 000 μM) was 29%, the IC50 [14, 18] was greater than 10000 µM and the “Glufosinate‐ammonium % Inhibition” value ([15]; 10 000 μM) was 0%. For the same compound, the IC50 [15, 18] was greater than 10000 µM, the “Resistance index (RI)” value ([16]; IC50 variant / IC50 WT) was 8.4 and the IC50 [16, 18] was 182 µM. The “Glufosinate‐ammonium % Inhibition” value ([17]; 10 000 μM) was 0.3% and the IC50 [17, 18] was greater than 10000 µM.
